Measurements as given in patent US20260231994A1, “TASTE-ENHANCING COMPOSITION, METHOD FOR PRODUCING SAME, FOOD PRODUCT, AND METHOD FOR ENHANCING TASTE OF FOOD PRODUCT” (HOUSE FOODS GROUP INC., priority 2023, published 2026).

Key:
Format in all cases: in vivo
[1] = Experiment 6 sensory evaluation of cyclic dipeptides, “boosting of last flavor (aftertaste)”
Experimental: (§1) An aqueous solution in which the concentration of each of the cyclic dipeptides shown in the table described below is set to be the same as its concentration in the heat-treated coriander prepared in 1.1. described above, as estimated from the ratio of the peak area of the cyclic dipeptides to the peak area of the internal standard (47 μg/g of L-lysine-^13C6 monohydrochloride) (hereinafter referred to as “heat-treated coriander equivalent aqueous solution”) was prepared. An aqueous solution in which the concentration of each of the cyclic dipeptides is set to be the same as its concentration in the heat-treated paprika of Example 203 prepared in 2.1 described above (hereinafter referred to as “heat-treated paprika equivalent aqueous solution”) was also prepared. Cyclic dipeptides prepared by the applicant were used in this experiment. As a cyclic dipeptide comprising Leu/Ile, a mixture comprising equal parts of cyclic dipeptide comprising Leu and cyclic dipeptide comprising Ile was used.
(§2) Common and reduced-sodium curry rouxes were prepared according to the procedures described in (1) and (2) of 1.3. described above.
(§3) Two dispersions of 44 g of the aforesaid reduced-sodium curry roux dispersed in 300 g of hot water were prepared. To one of them was added the heat-treated coriander equivalent solution or heat-treated paprika equivalent aqueous solution of the individual cyclic dipeptides shown in the table described below so as to be in the final concentration of 0.5% (w/w) or 1.0% (w/w), respectively.
(§4) Forty-four grams of the aforesaid common curry roux was dispersed in 300 g of hot water.
(§5) The dispersion of reduced-sodium curry roux dispersed in hot water and the dispersion of common curry roux dispersed in hot water were used as comparative controls, and the strength of the flavor was evaluated by three evaluators on the basis of the following evaluation criteria from the viewpoint of “top sharp saltiness”, “middle fullness (enhanced thickness) and “boosting of last flavor (aftertaste).”
(§6) The average of the evaluated scores was defined as “F” when it was 1.0 or lower, “C” when it was 1.1 or higher and 1.9 or lower, “B” when it was 2.0 or higher and 2.5 or lower, “A” when it was 2.6 or higher and 2.9 or lower, and “AA” when it was 3.0 or higher.
(§7) In the table described below, “ID” refers to the compound ID described above. The items of “coriander 0.5%” and “coriander 1.0%” refer to the addition of the aforesaid heat-treated coriander equivalent aqueous solution of cyclic dipeptide so that the final concentrations may be 0.5% (w/w) and 1.0% (w/w), respectively. The items of “paprika 0.5%” and “paprika 1.0%” refer to the addition of the aforesaid heat-treated paprika equivalent aqueous solution of cyclic dipeptide so that the final concentration may be 0.5% (w/w) and 1.0% (w/w), respectively.

[2] = Experiment 6 sensory evaluation of cyclic dipeptides, “middle fullness (enhanced thickness)”
Experimental: as §1, §2, §3, §4, §5, §6, §7

[3] = Experiment 6 sensory evaluation of cyclic dipeptides, “top sharp saltiness”
Experimental: as §1, §2, §3, §4, §5, §6, §7

[4] = Additive amount paprika 0.5%, reduced-sodium curry roux
[5] = heat-treated paprika equivalent aqueous solution of cyclic dipeptide, final 1.0% (w/w) in reduced-sodium curry roux dispersion
[6] = heat-treated paprika equivalent aqueous solution of cyclic dipeptide, final 1.0% (w/w) in reduced-sodium curry roux dispersion, 3 evaluators
[7] = Additive amount paprika 0.5% (heat-treated paprika equivalent aqueous solution, final 0.5% (w/w)), reduced-sodium curry roux
[8] = Additive amount coriander 0.5%, reduced-sodium curry roux
[9] = heat-treated coriander equivalent aqueous solution of cyclic dipeptide, final 1.0% (w/w) in reduced-sodium curry roux dispersion
[10] = heat-treated coriander equivalent aqueous solution of cyclic dipeptide, final 1.0% (w/w) in reduced-sodium curry roux dispersion, 3 evaluators
[11] = Additive amount coriander 0.5% (heat-treated coriander equivalent aqueous solution, final 0.5% (w/w)), reduced-sodium curry roux

cyclic (Gly-Leu/Ile) [Coriander ID 25]
Bosting of last flavor Average [1, 4]: 3.0 points
Bosting of last flavor Evaluation [1, 4]: AA (“AA” when it was 3.0 or higher)
Bosting of last flavor Evaluation [1, 5]: A (“A” when it was 2.6 or higher and 2.9 or lower)
Bosting of last flavor Average [1, 6]: 2.7 points
Middle fullness Average [2, 4]: 2.7 points
Middle fullness Evaluation [2, 4]: A (“A” when it was 2.6 or higher and 2.9 or lower)
Middle fullness Evaluation [2, 5]: A (“A” when it was 2.6 or higher and 2.9 or lower)
Middle fullness Average [2, 6]: 2.7 points
Top sharp saltiness Average [3, 7]: 3.0 points
Top sharp saltiness Evaluation [3, 4]: AA (“AA” when it was 3.0 or higher)
Top sharp saltiness Evaluation [3, 5]: A (“A” when it was 2.6 or higher and 2.9 or lower)
Top sharp saltiness Average [3, 6]: 2.8 points

cyclic (Val-Ser) [Coriander ID 59]
Bosting of last flavor Average [1, 4]: 2.7 points
Bosting of last flavor Evaluation [1, 4]: A (“A” when it was 2.6 or higher and 2.9 or lower)
Bosting of last flavor Evaluation [1, 5]: A (“A” when it was 2.6 or higher and 2.9 or lower)
Bosting of last flavor Average [1, 6]: 2.8 points
Middle fullness Average [2, 4]: 2.7 points
Middle fullness Evaluation [2, 4]: A (“A” when it was 2.6 or higher and 2.9 or lower)
Middle fullness Evaluation [2, 5]: B (“B” when it was 2.0 or higher and 2.5 or lower)
Middle fullness Average [2, 6]: 2.2 points
Top sharp saltiness Average [3, 7]: 2.5 points
Top sharp saltiness Evaluation [3, 4]: B (“B” when it was 2.0 or higher and 2.5 or lower)
Top sharp saltiness Evaluation [3, 5]: C (“C” when it was 1.1 or higher and 1.9 or lower)
Top sharp saltiness Average [3, 6]: 1.8 points

cyclic (Arg-Leu/Ile) [Coriander ID 22]
Bosting of last flavor Average [1, 8]: 2.7 points
Bosting of last flavor Evaluation [1, 8]: A (“A” when it was 2.6 or higher and 2.9 or lower)
Bosting of last flavor Evaluation [1, 9]: A (“A” when it was 2.6 or higher and 2.9 or lower)
Bosting of last flavor Average [1, 10]: 2.8 points
Middle fullness Average [2, 8]: 2.6 points
Middle fullness Evaluation [2, 8]: A (“A” when it was 2.6 or higher and 2.9 or lower)
Middle fullness Evaluation [2, 9]: B (“B” when it was 2.0 or higher and 2.5 or lower)
Middle fullness Average [2, 10]: 2.5 points
Top sharp saltiness Average [3, 11]: 2.6 points
Top sharp saltiness Evaluation [3, 8]: A (“A” when it was 2.6 or higher and 2.9 or lower)
Top sharp saltiness Evaluation [3, 9]: B (“B” when it was 2.0 or higher and 2.5 or lower)
Top sharp saltiness Average [3, 10]: 2.0 points

cyclic (Leu/Ile-His) [Coriander ID 52]
Bosting of last flavor Average [1, 8]: 2.8 points
Bosting of last flavor Evaluation [1, 8]: A (“A” when it was 2.6 or higher and 2.9 or lower)
Bosting of last flavor Evaluation [1, 9]: AA (“AA” when it was 3.0 or higher)
Bosting of last flavor Average [1, 10]: 3.0 points
Middle fullness Average [2, 8]: 3.2 points
Middle fullness Evaluation [2, 8]: AA (“AA” when it was 3.0 or higher)
Middle fullness Evaluation [2, 9]: A (“A” when it was 2.6 or higher and 2.9 or lower)
Middle fullness Average [2, 10]: 2.7 points
Top sharp saltiness Average [3, 11]: 3.3 points
Top sharp saltiness Evaluation [3, 8]: AA (“AA” when it was 3.0 or higher)
Top sharp saltiness Evaluation [3, 9]: B (“B” when it was 2.0 or higher and 2.5 or lower)
Top sharp saltiness Average [3, 10]: 2.3 points

cyclic (Gly-Thr) [Coriander ID 60]
Bosting of last flavor Average [1, 8]: 3.2 points
Bosting of last flavor Evaluation [1, 8]: AA (“AA” when it was 3.0 or higher)
Bosting of last flavor Evaluation [1, 9]: B (“B” when it was 2.0 or higher and 2.5 or lower)
Bosting of last flavor Average [1, 10]: 2.5 points
Middle fullness Average [2, 8]: 3.2 points
Middle fullness Evaluation [2, 8]: AA (“AA” when it was 3.0 or higher)
Middle fullness Evaluation [2, 9]: A (“A” when it was 2.6 or higher and 2.9 or lower)
Middle fullness Average [2, 10]: 2.7 points
Top sharp saltiness Average [3, 11]: 3.3 points
Top sharp saltiness Evaluation [3, 8]: AA (“AA” when it was 3.0 or higher)
Top sharp saltiness Evaluation [3, 9]: B (“B” when it was 2.0 or higher and 2.5 or lower)
Top sharp saltiness Average [3, 10]: 2.0 points

cyclic (Leu/Ile-Leu/Ile) [Coriander ID 1]
Bosting of last flavor Average [1, 4]: 3.0 points
Bosting of last flavor Evaluation [1, 4]: AA (“AA” when it was 3.0 or higher)
Bosting of last flavor Evaluation [1, 5]: B (“B” when it was 2.0 or higher and 2.5 or lower)
Bosting of last flavor Average [1, 6]: 2.3 points
Middle fullness Average [2, 4]: 2.7 points
Middle fullness Evaluation [2, 4]: A (“A” when it was 2.6 or higher and 2.9 or lower)
Middle fullness Evaluation [2, 5]: C (“C” when it was 1.1 or higher and 1.9 or lower)
Middle fullness Average [2, 6]: 1.8 points
Top sharp saltiness Average [3, 7]: 2.7 points
Top sharp saltiness Evaluation [3, 4]: A (“A” when it was 2.6 or higher and 2.9 or lower)
Top sharp saltiness Evaluation [3, 5]: C (“C” when it was 1.1 or higher and 1.9 or lower)
Top sharp saltiness Average [3, 6]: 1.7 points

cyclic (Glu-Phe) [Coriander ID 46]
Bosting of last flavor Average [1, 8]: 2.8 points
Bosting of last flavor Evaluation [1, 8]: A (“A” when it was 2.6 or higher and 2.9 or lower)
Bosting of last flavor Evaluation [1, 9]: B (“B” when it was 2.0 or higher and 2.5 or lower)
Bosting of last flavor Average [1, 10]: 2.5 points
Middle fullness Average [2, 8]: 2.8 points
Middle fullness Evaluation [2, 8]: A (“A” when it was 2.6 or higher and 2.9 or lower)
Middle fullness Evaluation [2, 9]: A (“A” when it was 2.6 or higher and 2.9 or lower)
Middle fullness Average [2, 10]: 2.7 points
Top sharp saltiness Average [3, 11]: 3.0 points
Top sharp saltiness Evaluation [3, 8]: AA (“AA” when it was 3.0 or higher)
Top sharp saltiness Evaluation [3, 9]: B (“B” when it was 2.0 or higher and 2.5 or lower)
Top sharp saltiness Average [3, 10]: 2.5 points

cyclic (Pro-Tyr) [Coriander ID 31]
Bosting of last flavor Average [1, 8]: 2.5 points
Bosting of last flavor Evaluation [1, 8]: B (“B” when it was 2.0 or higher and 2.5 or lower)
Bosting of last flavor Evaluation [1, 9]: B (“B” when it was 2.0 or higher and 2.5 or lower)
Bosting of last flavor Average [1, 10]: 2.0 points
Middle fullness Average [2, 8]: 2.5 points
Middle fullness Evaluation [2, 8]: B (“B” when it was 2.0 or higher and 2.5 or lower)
Middle fullness Evaluation [2, 9]: B (“B” when it was 2.0 or higher and 2.5 or lower)
Middle fullness Average [2, 10]: 2.0 points
Top sharp saltiness Average [3, 11]: 2.5 points
Top sharp saltiness Evaluation [3, 8]: B (“B” when it was 2.0 or higher and 2.5 or lower)
Top sharp saltiness Evaluation [3, 9]: B (“B” when it was 2.0 or higher and 2.5 or lower)
Top sharp saltiness Average [3, 10]: 2.0 points

cyclic (Phe-Thr) [Coriander ID 37]
Bosting of last flavor Average [1, 4]: 2.7 points
Bosting of last flavor Evaluation [1, 4]: A (“A” when it was 2.6 or higher and 2.9 or lower)
Bosting of last flavor Evaluation [1, 5]: B (“B” when it was 2.0 or higher and 2.5 or lower)
Bosting of last flavor Average [1, 6]: 2.3 points
Middle fullness Average [2, 4]: 2.5 points
Middle fullness Evaluation [2, 4]: B (“B” when it was 2.0 or higher and 2.5 or lower)
Middle fullness Evaluation [2, 5]: B (“B” when it was 2.0 or higher and 2.5 or lower)
Middle fullness Average [2, 6]: 2.2 points
Top sharp saltiness Average [3, 7]: 1.8 points
Top sharp saltiness Evaluation [3, 4]: C (“C” when it was 1.1 or higher and 1.9 or lower)
Top sharp saltiness Evaluation [3, 5]: B (“B” when it was 2.0 or higher and 2.5 or lower)
Top sharp saltiness Average [3, 6]: 2.3 points

cyclic (Ala-Tyr) [Coriander ID 26]
Bosting of last flavor Average [1, 8]: 2.2 points
Bosting of last flavor Evaluation [1, 8]: B (“B” when it was 2.0 or higher and 2.5 or lower)
Bosting of last flavor Evaluation [1, 9]: B (“B” when it was 2.0 or higher and 2.5 or lower)
Bosting of last flavor Average [1, 10]: 2.3 points
Middle fullness Average [2, 8]: 2.3 points
Middle fullness Evaluation [2, 8]: B (“B” when it was 2.0 or higher and 2.5 or lower)
Middle fullness Evaluation [2, 9]: B (“B” when it was 2.0 or higher and 2.5 or lower)
Middle fullness Average [2, 10]: 2.2 points
Top sharp saltiness Average [3, 11]: 2.2 points
Top sharp saltiness Evaluation [3, 8]: B (“B” when it was 2.0 or higher and 2.5 or lower)
Top sharp saltiness Evaluation [3, 9]: C (“C” when it was 1.1 or higher and 1.9 or lower)
Top sharp saltiness Average [3, 10]: 1.3 points
